This note sets out measurements from patent EP4737457A1, “POLYSUBSTITUTED MACROCYCLIC COMPOUND, AND PREPARATION METHOD THEREFOR AND USE THEREOF” (Shenzhen Salubris Pharmaceuticals Co., Ltd., priority 2023, dated 2025).

One series concerns the target Human Factor XIa (Homo sapiens, UniProt P03951). Put plainly: Inhibition of human coagulation Factor XIa by absorbance method (S-2366 substrate, 405 nm). It counts as biochemical. Particulars: incubated at 37 °C for 20 minutes; substrate 800 µM; read-out: Recombinant Enzyme FXIa IC50. Here is the method:
• Enzyme: Human Factor XIa (ENZYME […], Cat. No. HFXIa 1111a) • Substrate: S-2366™ (CHROMOGENIX, Cat. No. 82109039) • Buffer: 145 mM NaCl, 5 mM KCl, 1 mg/mL PEG 8000, 30 mM HEPES, pH 7.4.
Test compounds dissolved in 100% DMSO at 10 mM were diluted with 100% DMSO to concentrations of 1000 µM, 200 µM, 40 µM, 8 µM, 1.6 µM, 0.32 µM, 0.064 µM, 0.0128 µM, 0.00256 µM, and […]. Then 98 µL of FXIa enzyme solution (77.7 ng/mL) was added to each well of a 96-well plate, with 98 µL of buffer added to blank wells instead. Then, 2 µL of compound at different concentrations was added; DMSO was used instead for blank and control wells. The plate was mixed using a plate shaker and incubated at 37 °C for 20 minutes.
Finally, 100 µL of substrate (800 µM) was added to each well, and the absorbance was measured at 405 nm.
Curve fitting was performed using GraphPad Prism software to calculate the IC50 values.

The test system of a further series is Pooled human plasma. Put plainly: In vitro anticoagulant effect in human plasma (aPTT, EC1.5x). It counts as biochemical. Particulars: 37 °C for 10 minutes. The method, then: aPTT (Lot 220106600), Calcium Chloride (Lot 210305600), Needle Rinse Solution (Lot 211101300): produced by Shenzhen Mindray Bio-Medical Electronics Co., Ltd. Pooled human plasma: collected from healthy individuals using disposable venous blood collection tubes (Liuyang Sanli Medical Technology Development Co., Ltd., Lot 211108, sodium citrate 9:1). Blood was collected, centrifuged at room temperature at 3000 rpm for 10 minutes, and the supernatant was collected and stored for use (Lot 20220606).
Test compounds dissolved in 100% DMSO at 10 mM were diluted with 100% DMSO to concentrations of 0.29 µM, 0.59 µM, 1.17 µM, 2.34 µM, 4.69 µM, 9.38 µM, 18.75 µM, and 37.50 µM. Then 99 µL of pooled human plasma was added to each 1.5 mL centrifuge tube, followed by the addition of 1 µL of compound at different concentrations; 1 µL of DMSO was added to the blank control. The tubes were mixed by repeated manual inversion, centrifuged briefly using a mini centrifuge to collect the samples, and then incubated in a thermostatic water bath at 37 °C for 10 minutes with mixing. The aPTT was measured using a fully automated coagulation analyzer according to the preset program.
Curve fitting was performed using GraphPad Prism software to calculate EC1.5x.

Series [1] can be described thus: Pharmacokinetic experiment in rats (iv and PO). Particulars: male, Sprague-Dawley (SD), rat, plasma, 5 mg/kg.
Source text: Polyethylene glycol 400 (PEG-400, Lot GORKREUT, Shaen Chemical Technology (Shanghai) Co., Ltd.), DMSO (Lot 20200319, Guangdong Guanghua Sci-Tech Co., Ltd.), normal saline (Lot C20052604, Jiangxi Kelun Pharmaceutical Co., Ltd.). LC-MS instrument (Thermo Fisher Ultimate 3000 UPLC, TSQ QUANTUM ULTRA triple quadrupole mass spectrometer, AB SCIEX 5500 QTARP).
SD rats: Male, 180-250 g, purchased from Guangdong Vital River Laboratory Animal Technology Co., Ltd.
The test compound powder was accurately weighed, completely dissolved in DMSO, then PEG-400 was added. The mixture was vortexed and sonicated to mix, followed by the addition of normal saline. The mixture was vortexed and sonicated again to achieve a final concentration of 0.5 mg/mL (DMSO:PEG-400:NS = 5:60:35, V/V/V). The dosing volume was 10 mL/kg for oral gavage and 0.5 mL/kg for intravenous administration.
After intravenous or oral administration to rats, 200 µL of venous blood was collected at 5 min (not collected for oral group), 15 min, 30 min, 1 h, 2 h, 5 h, 7 h, and 24 h into heparinized EP tubes. The blood was centrifuged at 12,000 rpm for 2 minutes, and the plasma was collected and stored at -80 °C until analysis.
A precise amount of the test compound was weighed and dissolved in DMSO to 1 mg/mL as a stock solution. An appropriate volume of the compound stock solution was accurately pipetted and diluted with acetonitrile to prepare standard series solutions. 20 µL of each standard series solution was accurately pipetted and added to 180 µL of blank plasma, vortexed to mix, to prepare plasma samples equivalent to plasma concentrations of 1 ng/mL, 3 ng/mL, 10 ng/mL, 30 ng/mL, 100 ng/mL, 300 ng/mL, 1000 ng/mL, 3000 ng/mL, and 5000 ng/mL. Each concentration was analyzed in duplicate to establish the standard curve. 20 µL of plasma sample was taken, and 200 µL of an internal standard (propranolol, 5 ng/mL) in acetonitrile solution was added. The mixture was vortexed and centrifuged at 4000 rpm for 5 minutes. The supernatant was taken for LC-MS analysis. The LC-MS detection conditions were as follows: Chromatographic Column: Waters ACQUITY™ PREMIER HSS T3, 50*2.1 mm, 1.8 µm.
Mobile phase A: water (0.1% formic acid), mobile phase B: acetonitrile, flow rate: 0.5 mL/min, gradient elution: see Table 2 below.
After determining the plasma drug concentration by LC-MS, the pharmacokinetic parameters following administration to rats were calculated using the non-compartmental model in WinNonlin 6.1 software.

Chain of Human Factor XIa (P03951 388-625 limits assumed): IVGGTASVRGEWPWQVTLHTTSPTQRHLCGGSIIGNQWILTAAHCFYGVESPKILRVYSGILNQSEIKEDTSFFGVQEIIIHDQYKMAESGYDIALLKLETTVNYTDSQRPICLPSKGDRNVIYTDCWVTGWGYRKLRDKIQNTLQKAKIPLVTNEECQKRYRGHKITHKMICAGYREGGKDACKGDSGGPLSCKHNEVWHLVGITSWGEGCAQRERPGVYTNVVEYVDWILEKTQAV
Chain of Human Factor XIa (P03951 19-387 partner limits assumed): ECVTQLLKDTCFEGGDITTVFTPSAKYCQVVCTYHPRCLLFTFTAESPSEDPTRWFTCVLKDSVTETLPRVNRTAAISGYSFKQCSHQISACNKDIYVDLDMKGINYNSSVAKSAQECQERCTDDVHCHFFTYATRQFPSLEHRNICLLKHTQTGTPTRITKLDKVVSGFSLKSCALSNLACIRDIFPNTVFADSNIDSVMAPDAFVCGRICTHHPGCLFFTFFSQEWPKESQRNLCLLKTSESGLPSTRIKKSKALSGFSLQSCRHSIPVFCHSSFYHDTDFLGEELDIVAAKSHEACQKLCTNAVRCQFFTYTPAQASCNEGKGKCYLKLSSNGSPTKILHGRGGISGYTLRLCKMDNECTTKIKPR

As for `[2H]C([2H])([2H])n1ncc2c1-c1cc(F)c(F)c(c1)[C@@H](n1ccc(-c3cc(Cl)ccc3-n3cc(C(F)(F)F)nn3)c(F)c1=O)CCC[C@@H](C)C(=O)N2` [Compound 9, (3S,7R)-3-(4-(5-chloro-2-(4-(trifluoromethyl)-1H-1,2,3-triazol-1-yl)phenyl)-3-fluoro-2-oxopyridin-1(2H)-yl)-2^4,2^5-difluoro-7-methyl-1^1-(methyl-d3)-1^1H-9-aza-1 (5,4)-pyrazola-2(1,3)-benzenacyclononaphan-8-one], the half-maximal inhibitory concentration (IC50) at Human Factor XIa came out at 300 pM.

As for `C[C@@H]1CCC[C@H](n2cnc(-c3c(-n4cc(Cl)nn4)ccc(Cl)c3F)cc2=O)c2cc(cc(F)c2F)-c2c(cnn2C(F)F)NC1=O` [Compound 13, (3S,7R)-3-(4-(3-chloro-6-(4-chloro-1H-1,2,3-triazol-1-yl)-2-fluorophenyl)-6-oxopyrimidin-1(6H)-yl)-2^4,2^5-difluoro-7-methyl-1^1-difluoromethyl-1^1H-9-aza-1(5,4)-pyraz ola-2(1,3)-benzenacyclononaphan-8-one], on Human Factor XIa, the IC50 is 400 pM.

On to `C[C@@H]1CCC[C@H](n2cnc(-c3c(-n4cc(C(F)(F)F)nn4)ccc(Cl)c3F)cc2=O)c2cc(cc(F)c2F)-c2c(cnn2C(F)F)NC1=O` [Compound 11, (3S,7R)-3-(4-(3-chloro-2-fluoro-6-(4-(trifluoromethyl)-1H-1,2,3-triazol-1-yl)phenyl)-6-oxopyrimidin-1(6H)-yl)-2^4,2^5-difluoro-7-methyl-1^1-difluoromethyl-1^1H-9-aza-1 (5,4)-pyrazola-2(1,3)-benzenacyclononaphan-8-one], for which the IC50 on Human Factor XIa is 290 pM. In addition, the “Human Plasma APTT 1.5x” value with Pooled human plasma stood at 0.23 µM. In addition, the bioavailability in series [1] amounted to 21.6%.

In the case of `C[C@@H]1CCC[C@H](n2cnc(-c3cc(Cl)ccc3-n3cc(Cl)nn3)cc2=O)c2cc(cc(F)c2F)-c2c(cnn2C(F)F)NC1=O` [Compound 14, (3S,7R)-3-(4-(5-chloro-2-(4-chloro-1H-1,2,3-triazol-1-yl)phenyl)-6-oxopyrimidin-1(6H)-yl)-2^4,2^5-difluoro-7-methyl-1^1-difluoromethyl-1^1H-9-aza-1(5,4)-pyrazol a-2(1,3)-benzenacyclononaphan-8-one], the IC50 at Human Factor XIa is 380 pM.

Consider `[2H]C([2H])([2H])n1ncc2c1-c1cc(F)c(F)c(c1)[C@@H](n1ccc(-c3cc(Cl)ccc3-n3cc(C(F)F)nn3)cc1=O)CCC[C@@H](C)C(=O)N2` [Compound 10, (3S,7R)-3-(4-(5-chloro-2-(4-(difluoromethyl)-1H-1,2,3-triazol-1-yl)phenyl)-2-oxopyridin-1(2H)-yl)-2^4,2^5-difluoro-7-methyl-1^1-(methyl-d3)-1^1H-9-aza-1(5,4)-pyrazola-2(1,3)-benzenacyclononaphan-8-one], for which the IC50 at Human Factor XIa was 770 pM. The “Human Plasma APTT 1.5x” value with Pooled human plasma is reported as 0.20 µM.

On to `[2H]C([2H])([2H])n1ncc2c1-c1cc(F)c(F)c(c1)[C@@H](n1ccc(-c3cc(Cl)ccc3-n3cc(C(F)(F)F)nn3)cc1=O)CCC[C@@H](C)C(=O)N2` [Compound 7, (3S,7R)-3-(4-(5-chloro-2-(4-(trifluoromethyl)-1H-1,2,3-triazol-1-yl)phenyl) -2-oxopyridin-1(2H)-yl)-2^4,2^5-difluoro-7-methyl-1^1-(methyl-d3)-1^1H-9-aza-1(5,4)-pyrazola-2 (1,3)-benzenacyclononaphan-8-one], for which the IC50 on Human Factor XIa was 340 pM. Moreover, the “Human Plasma APTT 1.5x” value in the series with Pooled human plasma is given as 0.22 µM.

With `[2H]C([2H])([2H])n1ncc2c1-c1cc(F)c(F)c(c1)[C@@H](n1ccc(-c3cc(Cl)ccc3-n3cc(C(F)(F)F)nn3)c(Cl)c1=O)CCC[C@@H](C)C(=O)N2` [Compound 8, (3S,7R)-3-(4-(5-chloro-2-(4-(trifluoromethyl)-1H-1,2,3-triazol-1-yl)phenyl) -3-chloro-2-oxopyridin-1(2H)-yl)-2^4,2^5-difluoro-7-methyl-1^1-(methyl-d3)-1^1H-9-aza-1(5,4)-p yrazola-2(1,3)-benzenacyclononaphan-8-one], the IC50 on Human Factor XIa was determined as 150 pM.

With `[2H]C([2H])([2H])n1ncc2c1-c1cc(F)c(F)c(c1)[C@@H](n1ncc(-c3c(-n4cc(C(F)(F)F)nn4)ccc(Cl)c3F)c(Cl)c1=O)CCC[C@@H](C)C(=O)N2` [Compound 6, (3S,7R)-3-(5-chloro-4-(3-chloro-2-fluoro-6-(4-(trifluoromethyl)-1H-1,2,3-triazol-1-yl)phenyl)-6-oxopyridazin-1(6H)-yl)-2^42^5-difluoro-7-methyl-1^1-(methyl-d3)-1^1H-9-aza-1(5,4)-pyrazola-2(1,3)-benzenacyclononaphan-8-one], at Human Factor XIa, the half-inhibitory concentration (IC50) is 1060 pM. The “Human Plasma APTT 1.5x” value in the series on Pooled human plasma was 0.43 µM. Besides, the bioavailability in series [1] was determined as 14.1%.

As for `[2H]C([2H])([2H])n1ncc2c1-c1cc(F)c(F)c(c1)[C@@H](n1cnc(-c3cc(Cl)ccc3-n3cc(C(F)(F)F)nn3)cc1=O)CCC[C@@H](C)C(=O)N2` [Compound 2, (3R,7R)-3-(4-(5-chloro-2-(4-(trifluoromethyl)-1H-1,2,3-triazol-1-yl)phenyl) -6-oxopyrimidin-1(6H)-yl)-2^42^5-difluoro-7-methyl-1^1-(methyl-d3)-1^1H-9-aza-1(5,4)-pyrazola-2(1,3)-benzenacyclononaphan-8-one], the IC50 at Human Factor XIa was 360 pM. The “Human Plasma APTT 1.5x” value in the series on Pooled human plasma is 0.24 µM.

With `[2H]C([2H])([2H])n1ncc2c1-c1cc(F)c(F)c(c1)[C@@H](n1ncc(-c3cc(Cl)ccc3-n3cc(C(F)(F)F)nn3)cc1=O)CCC[C@@H](C)C(=O)N2` [Compound 5, (3S,7R)-3-(4-(5-chloro-2-(4-(trifluoromethyl)-1H-1,2,3-triazol-1-yl)phenyl) -6-oxopyridazin-1(6H)-yl)-2^4,2^5-difluoro-7-methyl-1^1-(methyl-d3)-1^1H-9-aza-1(5,4)-pyrazola-2(1,3)-benzenacyclononaphan-8-one], the IC50 on Human Factor XIa turned out to be 890 pM. For the same molecule, the “Human Plasma APTT 1.5x” value in the series on Pooled human plasma stood at 0.83 µM.

Turning to `[2H]C([2H])([2H])n1ncc2c1-c1cc(F)c(F)c(c1)[C@@H](n1cnc(-c3c(-n4cc(Cl)nn4)ccc(Cl)c3F)cc1=O)CCC[C@@H](C)C(=O)N2` [Compound 3, (3S,7R)-3-(4-(3-chloro-6-(4-chloro-1H-1,2,3-triazol-1-yl)-2-fluorophenyl)-6-oxopyrimidin-1(6H)-yl)-2^4,2^5-difluoro-7-methyl-1^1-(methyl-d3)-1^1H-9-aza-1(5,4)-pyrazola-2(1,3)-benzenacyclononaphan-8-one], the IC50 at Human Factor XIa came to 610 pM. Moreover, in the series on Pooled human plasma, the “Human Plasma APTT 1.5x” value turned out to be 0.24 µM. The bioavailability in series [1] came to 15.7%.
